This is an account of results in patent publication US20230124720A1, “APPLICATION OF ACRIDINEDIONE COMPOUND IN PREPARATION OF ANTI-DIABETIC DRUGS” (THE FOURTH MILITARY MEDICAL UNIVERSITY, priority 2020, published 2023).

Test [1] concerns MIN6 cells. The test is described as follows: Insulin secretion in PA-induced insulin-resistant MIN6 cells. The following applies: PA-induced IR model, 10 μmol/L, 24 h, 2.8 and 16.7 mmol/L glucose; P<0.001. The test is classed as cell-based, mouse. As to the method: MIN6 cells were seeded in 24-well plates and cultured as described in step 2.1 to a cell confluency of more than 80% and administrated in the following groups, with 12 replicates per group: (1) normal control group (Con): cultured with blank 1640 medium; (2) insulin resistance model panel (IR): treated with 0.125 mmol/L PA for 24 h to induce establishment of an insulin resistance model; (3) ADD-16 administration group (ADD): 10 μmol/L ADD-16 intervention was administered for 24 h after successful establishment of the insulin resistance model; (4) TAK875 control group (TAK875): 10 μmol/L TAK875 was administered as a positive control drug intervention for 24 h after successful establishment of the insulin resistance model; (5) metformin control group (MT): 10 mmol/L metformin was administered as a positive control drug intervention for 24 h after successful establishment of the insulin resistance model; (6) sitagliptin control group (ST): 10 μmol/L sitagliptin was administered as a positive control drug intervention for 24 h after successful establishment of the insulin resistance model. After the group administration, the medium was aspirated and washed 2 times with a KRB buffer without sugar, followed by the addition of the KRB buffer without sugar. […] After incubation at 37° C. for 1 h, all the medium in the wells was aspirated and centrifuged at 2000 rmp/min for 20 min, and the supernatant was collected and stored at −20° C. The insulin content was measured for each group.

For test [2], the system named is MIN6 cells. The test can be described thus: Western Blot / immunofluorescence of insulin signaling related molecules in insulin-resistant MIN6 cells. The test is classed as cell-based, mouse. The following applies: insulin-resistant MIN6 cells, 24 h, P<0.001. As to the method:
MIN6 cells were seeded in culture dishes at the appropriate density and cultured as described in step 2.1 to a confluency of about 80%. Cells were divided into the following 5 groups: (1) normal control group (Con): cultured with blank 1640 medium; (2) insulin resistance model panel (IR): treatment with 0.125 mmol/L PA for 24 h to induce establishment of a MIN6 cell insulin resistance model; (3) 3 μmol/L ADD-16 administration group (ADD I): 3 μmol/L ADD-16 intervention was given for 24 h after successful establishment of the insulin resistance model; (4) 10 μmol/L ADD-16 administration group (ADD II): 10 μmol/L ADD-16 intervention was given for 24 h after successful establishment of the insulin resistance model; (5) TAK875 control group (TAK875): 10 μmol/L TAK875 was administered as a positive control drug intervention for 24 h after successful establishment of the insulin resistance model. At the end of the group administration, groups of cells were harvested for WB or IF experiments.
(A western blot detects proteins with antibodies after separation by electrophoresis.)

For test [3], the system named is STZ-induced T2DM rats. The test can be described thus: Postprandial blood glucose in STZ-induced T2DM rats. The test is classed as in vivo, rat. The following applies: end of administration. As for the experimental part: (§1) 150 male SD rats, housed in cages in a clean constant temperature (23±2° C.) and humidity (55±10%) animal house, were manually adjusted on a daily 12 h/12 h diurnal light cycle with free access to water. After 3 days of adaptive feeding, 150 rats were randomly divided into normal and model groups. The normal (Con, n=15) group of rats remained on raw chow and the model group (n=135) of rats were given high fat high sugar chow. All rats were fed twice daily and the amount of feed was adjusted as needed to ensure adequate feed. After 8 weeks of group feeding, the model group rats were given an intraperitoneal injection of 25 mg/kg STZ solution with a 12 h fast prior to injection. After injection, feeding was continued as in the original method, blood was taken from the tail vein at 72 h for blood glucose measurement, and rats with fasting blood glucose levels ≥11.1 mmol/L on different days were screened for successful artificial induction of T2DM and administered in groups for the next experiment. 135 rats with successful modeling were randomly divided into 9 groups: […] (2) 0.01 mg/kg ADD-16 administration group (ADD I, n=15): daily administration of 0.01 mg/kg ADD-16 solution by gavage; (3) 0.1 mg/kg ADD-16 administration group (ADD II, n=15): daily administration of a 0.1 mg/kg ADD-16 solution by gavage; (4) 1 mg/kg ADD-16 administration group (ADD III, n=15): daily administration of a 1 mg/kg ADD-16 solution by gavage; (5) 3 mg/kg ADD-16 administration group (ADD IV, n=15): daily administration of a 3 mg/kg ADD-16 solution by gavage; (6) 10 mg/kg ADD-16 administration group (ADD V, n=15): daily administration of a 10 mg/kg ADD-16 solution by gavage; (7) 50 mg/kg ADD-16 administration group (ADD VI, n=15): daily administration of a 50 mg/kg ADD-16 solution by gavage; […] (9) Sitagliptin control group (ST, n=15): daily administration of a 6 mg/kg sitagliptin solution by gavage. […] Relevant indicators of lipid metabolism were measured after the end of the study.

Test [4] relates to STZ-induced T2DM rats. The test is described as follows: Insulin tolerance test (ITT) in T2DM rats. The test is classed as in vivo, rat. As for the experimental part: as §1, with “study. […] After the 120 min blood glucose value determination was completed, the diet was resumed. In the test, the condition of the rats was observed, and when abnormalities occurred, the experiment was stopped in time and a glucose solution was given by gavage to prevent death due to hypoglycemia.” for “study.”

Where [5] appears, read: MT group, 250 mg/kg daily by gavage.
Setting [6] is: ST group, 6 mg/kg daily by gavage.

For the compound `Cc1cc(OCCCS(C)(=O)=O)cc(C)c1-c1cccc(COc2ccc3c(c2)OC[C@H]3CC(=O)O)c1` [TAK875, reference compound], the “insulin secretion level in insulin-resistant MIN6 cells (in words)” value in the test with MIN6 cells [1] is recorded as “even higher than in Con group”. In addition, the “expression of insulin signaling-related molecules, Western Blot (in words)” value in the test with MIN6 cells [2] was “upregulate GPR40, PGC-1α, P-P38, P-EP300, PPARγ, P-AKT, PI3K, IRS1 and GLUT4 expression”.
For the compound `CN(C)C(=N)N=C(N)N` [metformin, reference compound], the “reduction in blood glucose compared to the TD group” value in the test on STZ-induced T2DM rats [3] (setting [5]) amounted to 45.0%. Further, in the test with STZ-induced T2DM rats [4] (setting [5]), the “decrease of ITT AUC compared to the TD group” value came out at 39.9%.
As for `N[C@@H](CC(=O)N1CCn2c(nnc2C(F)(F)F)C1)Cc1cc(F)c(F)cc1F` [sitagliptin, reference compound], the “reduction in blood glucose compared to the TD group” value in the test on STZ-induced T2DM rats [3] (setting [6]) was determined as 61.5%. Also, the “decrease of ITT AUC compared to the TD group” value with STZ-induced T2DM rats [4] (setting [6]) came to 51.4%. The “insulin secretion level in insulin-resistant MIN6 cells (in words)” value with MIN6 cells [1] was “even higher than in Con group”.
